Measured values reported in patent publication US11267800B2, “Cyclohexyl acid triazole azines as LPA antagonists” (BRISTOL-MYERS SQUIBB COMPANY, priority 2017, dated 2022).

Target: T1, human LPA1 (Homo sapiens, UniProt Q92633)
T1 construct: expressed in transfected cells; host or cells: Chinese hamster ovary (CHO) cells
Test: LPA1 functional antagonist assay (calcium flux)
Assay type: cell-based
Conditions: CHO cells overexpressing human LPA1; inhibition of calcium flux induced by 10 nM LPA; read-out: hLPA1 IC50
Method in brief: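 Dye-loaded CHO cells overexpressing human LPA1 (30 min, 37 °C) were preincubated 20 min at room temperature with compound (0.08 nM–5 μM; 0.5% DMSO; HBSS, 20 mM HEPES, 0.1% fatty-acid-free BSA), then stimulated with 10 nM LPA. IC50 is the concentration inhibiting 50% of LPA-induced calcium flux, from a 4-parameter logistic fit.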

T1 sequence (Q92633 whole entry): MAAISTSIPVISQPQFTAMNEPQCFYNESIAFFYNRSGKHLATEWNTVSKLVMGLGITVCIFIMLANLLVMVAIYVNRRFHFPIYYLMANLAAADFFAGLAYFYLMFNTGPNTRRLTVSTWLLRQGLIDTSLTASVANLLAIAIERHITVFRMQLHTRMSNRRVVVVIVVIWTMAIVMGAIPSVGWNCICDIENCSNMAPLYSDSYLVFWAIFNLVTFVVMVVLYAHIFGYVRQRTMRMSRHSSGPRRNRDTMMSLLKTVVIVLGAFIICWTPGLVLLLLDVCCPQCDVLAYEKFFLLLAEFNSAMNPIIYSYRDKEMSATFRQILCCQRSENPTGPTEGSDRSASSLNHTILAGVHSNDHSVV

Cc1nc(-c2nnn(C)c2CNc2cc(-c3ccccc3)cnn2)ccc1O[C@H]1CCC[C@H](C(=O)O)C1 [Example 214, (1S,3S)-3-((2-Methyl-6-(1-methyl-5-(((5-phenylpyridazin-3-yl)amino)methyl)-1H-1,2,3-triazol-4-yl)pyridin-3-yl)oxy)cyclohexane-1-carboxylic acid]
IC50: 297 nM

Cc1nc(-c2nnn(C)c2CNc2cc(C3CC3)cnn2)ccc1O[C@H]1CCC[C@H](C(=O)O)C1 [Example 215, (1S,3S)-3-((6-(5-(((5-Cyclopropyl-pyridazin-3-yl)amino)methyl)-1-methyl-1H-1,2,3-triazol-4-yl)-2-methylpyridin-3-yl)oxy)cyclohexane-1-carboxylic acid]
IC50: 278 nM

Cc1nc(-c2nnn(C)c2CNc2nnc(Cl)cc2C2CC2)ccc1O[C@H]1CCC[C@H](C(=O)O)C1 [Example 216, (1S,3S)-3-((6-(5-(((6-Chloro-4-cyclopropylpyridazin-3-yl)amino)methyl)-1-methyl-1H-1,2,3-triazol-4-yl)-2-methylpyridin-3-yl)oxy) cyclohexane-1-carboxylic acid]
IC50: 379 nM

Cc1nc(-c2nnn(C)c2CNc2cc(C(C)C)cnn2)ccc1O[C@H]1CCC[C@H](C(=O)O)C1 [Example 217, (1S,3S)-3-((6-(5-(((5-Isopropyl-pyridazin-3-yl)amino)methyl)-1-methyl-1H-1,2,3-triazol-4-yl)-2-methylpyridin-3-yl)oxy)cyclohexane-1-carboxylic acid]
IC50: 97 nM

Cc1nc(-c2nnn(C)c2CNc2nnccc2OC2CC2)ccc1O[C@H]1CCC[C@H](C(=O)O)C1 [Example 218, (1S,3S)-3-((6-(5-(((4-Cyclopropoxy-pyridazin-3-yl)amino)methyl)-1-methyl-1H-1,2,3-triazol-4-yl)-2-methylpyridin-3-yl)oxy)cyclohexane-1-carboxylic acid]
IC50: 213 nM

Cc1nc(-c2nnn(C)c2CNc2cc(OC3CC3)cnn2)ccc1O[C@H]1CCC[C@H](C(=O)O)C1 [Example 219, (1S,3S)-3-((6-(5-(((5-Cyclopropoxy-pyridazin-3-yl)amino)methyl)-1-methyl-1H-1,2,3-triazol-4-yl)-2-methylpyridin-3-yl)oxy)cyclohexane-1-carboxylic acid]
IC50: 138 nM

Cc1nc(-c2nnn(C)c2CNc2cncc(-c3ccccc3)n2)ccc1O[C@H]1CCC[C@H](C(=O)O)C1 [Example 220, (1S,3S)-3-((2-Methyl-6-(1-methyl-5-(((6-phenylpyrazin-2-yl)amino)methyl)-1H-1,2,3-triazol-4-yl)pyridin-3-yl)oxy)cyclohexane-1-carboxylic acid]
IC50: 30 nM

CCCc1ncnc(NCc2c(-c3ccc(O[C@H]4CCC[C@H](C(=O)O)C4)cn3)nnn2C)n1 [Example 221, (1S,3S)-3-((6-(1-methyl-5-(((4-propyl-1,3,5-triazin-2-yl)amino)methyl)-1H-1,2,3-triazol-4-yl)pyridin-3-yl)oxy) cyclohexane-1-carboxylic acid]
IC50: 63 nM

CCCCc1ncnc(NCc2c(-c3ccc(O[C@H]4CCC[C@H](C(=O)O)C4)cn3)nnn2C)n1 [Example 222, (1S,3S)-3-((6-(5-(((4-butyl-1,3,5-triazin-2-yl)amino)methyl)-1-methyl-1H-1,2,3-triazol-4-yl)pyridin-3-yl)oxy)cyclohexane-1-carboxylic acid]
IC50: 68 nM

Cn1nnc(-c2ccc(O[C@H]3CCC[C@H](C(=O)O)C3)cn2)c1CNc1ncnc(C2CC2)n1 [Example 223, (1S,3S)-3-((6-(5-(((4-cyclopropyl-1,3,5-triazin-2-yl)amino)methyl)-1-methyl-1H-1,2,3-triazol-4-yl)pyridin-3-yl)oxy)cyclohexane-1-carboxylic acid]
IC50: 211 nM

CCc1ncnc(NCc2c(-c3ccc(O[C@H]4CCC[C@H](C(=O)O)C4)cn3)nnn2C)n1 [Example 224, (1S,3S)-3-((6-(5-(((4-ethyl-1,3,5-triazin-2-yl)amino)methyl)-1-methyl-1H-1,2,3-triazol-4-yl)pyridin-3-yl)oxy) cyclohexane-1-carboxylic acid]
IC50: 813 nM

CCc1nc(CC)nc(NCc2c(-c3ccc(O[C@H]4CCC[C@H](C(=O)O)C4)cn3)nnn2C)n1 [Example 225, (1S,3S)-3-((6-(5-(((4,6-diethyl-1,3,5-triazin-2-yl)amino)methyl)-1-methyl-1H-1,2,3-triazol-4-yl)pyridin-3-yl)oxy)cyclohexane-1-carboxylic acid]
IC50: 789 nM

Cc1nc(-c2nnn(C)c2Nc2cccc(Cc3ccccc3)n2)ccc1O[C@H]1CCC[C@H](C(=O)O)C1 [Example 226, (1S,3S)-3-((6-(5-((6-benzylpyridin-2-yl)amino)-1-methyl-1H-1,2,3-triazol-4-yl)-2-methylpyridin-3-yl)oxy)cyclohexane-1-carboxylicacid]
IC50: 19 nM

Cc1nc(-c2nnn(C)c2Nc2nccc(OC3CC3)n2)ccc1O[C@H]1CCC[C@H](C(=O)O)C1 [Example 227, (1S,3S)-3-((6-(5-((4-cyclopropoxypyrimidin-2-yl)amino)-1-methyl-1H-1,2,3-triazol-4-yl)-2-methylpyridin-3-yl)oxy)cyclohexane-1-carboxylic acid]
IC50: 215 nM

Cc1nc(-c2nnn(C)c2Nc2ccnc(OC3CC3)n2)ccc1O[C@H]1CCC[C@H](C(=O)O)C1 [Example 228, (1S,3S)-3-((6-(5-((2-cyclopropoxypyrimidin-4-yl)amino)-1-methyl-1H-1,2,3-triazol-4-yl)-2-methylpyridin-3-yl)oxy)cyclohexane-1-carboxylic acid]
IC50: 215 nM

CCOc1ccnc(Nc2c(-c3ccc(O[C@H]4CCC[C@H](C(=O)O)C4)c(C)n3)nnn2C)n1 [Example 229, (1S,3S)-3-((6-(5-((4-ethoxypyrimidin-2-yl)amino)-1-methyl-1H-1,2,3-triazol-4-yl)-2-methylpyridin-3-yl)oxy)cyclohexane-1-carboxylic acid]
IC50: 165 nM

CCCc1cccc(Nc2c(-c3ccc(O[C@H]4CCC[C@H](C(=O)O)C4)c(C)n3)nnn2C)n1 [Example 230, (1S,3S)-3-((2-methyl-6-(1-methyl-5-((6-propylpyridin-2-yl)amino)-1H-1,2,3-triazol-4-yl)pyridin-3-yl)oxy) cyclohexane-1-carboxylic acid]
IC50: 11 nM

Cc1nc(-c2nnn(C)c2Nc2cccc(C3CC3)n2)ccc1O[C@H]1CCC[C@H](C(=O)O)C1 [Example 231, (1S,3S)-3-((6-(5-((6-cyclopropyl-pyridin-2-yl)amino)-1-methyl-1H-1,2,3-triazol-4-yl)-2-methylpyridin-3-yl)oxy)cyclohexane-1-carboxylic acid]
IC50: 21 nM

Cc1nc(-c2nnn(C)c2Nc2nccc(OCC3CC3)n2)ccc1O[C@H]1CCC[C@H](C(=O)O)C1 [Example 232, (1S,3S)-3-((6-(5-((4-(cyclopropyl-methoxy)pyrimidin-2-yl)amino)-1-methyl-1H-1,2,3-triazol-4-yl)-2-methylpyridin-3-yl)oxy)cyclohexane-1-carboxylic acid]
IC50: 64 nM

Cc1nc(-c2nnn(C)c2Nc2ccnc(OCC3CC3)n2)ccc1O[C@H]1CCC[C@H](C(=O)O)C1 [Example 233, (1S,3S)-3-((6-(5-((2-(cyclopropyl-methoxy)pyrimidin-4-yl)amino)-1-methyl-1H-1,2,3-triazol-4-yl)-2-methylpyridin-3-yl)oxy)cyclohexane-1-carboxylic acid]
IC50: 392 nM

Cc1nc(-c2nnn(C)c2Nc2cc(C3CC3)ccn2)ccc1O[C@H]1CCC[C@H](C(=O)O)C1 [Example 234, (1S,3S)-3-((6-(5-((4-cyclopropyl-pyridin-2-yl)amino)-1-methyl-1H-1,2,3-triazol-4-yl)-2-methylpyridin-3-yl)oxy)cyclohexane-1-carboxylic acid]
IC50: 88 nM

CCCc1ccnc(Nc2c(-c3ccc(O[C@H]4CCC[C@H](C(=O)O)C4)c(C)n3)nnn2C)n1 [Example 235, (1S,3S)-3-((2-methyl-6-(1-methyl-5-((4-propylpyrimidin-2-yl)amino)-1H-1,2,3-triazol-4-yl)pyridin-3-yl)oxy) cyclohexane-1-carboxylic acid]
IC50: 23 nM

CCCCc1cccc(Nc2c(-c3ccc(O[C@H]4CCC[C@H](C(=O)O)C4)c(C)n3)nnn2C)n1 [Example 236, (1S,3S)-3-((6-(5-((6-butylpyridin-2-yl)amino)-1-methyl-1H-1,2,3-triazol-4-yl)-2-methylpyridin-3-yl)oxy)cyclohexane-1-carboxylic acid]
IC50: 10 nM

Cc1nc(-c2nnn(C)c2Nc2cccc(OCc3ccccc3)n2)ccc1O[C@H]1CCC[C@H](C(=O)O)C1 [Example 237, (1S,3S)-3-((6-(5-((6-(benzyloxy)pyridin-2-yl)amino)-1-methyl-1H-1,2,3-triazol-4-yl)-2-methylpyridin-3-yl)oxy)cyclohexane-1-carboxylic acid]
IC50: 55 nM

CCCOc1nccc(Nc2c(-c3ccc(O[C@H]4CCC[C@H](C(=O)O)C4)c(C)n3)nnn2C)n1 [Example 238, (1S,3S)-3-((2-methyl-6-(1-methyl-5-((2-propoxypyrimidin-4-yl)amino)-1H-1,2,3-triazol-4-yl)pyridin-3-yl)oxy)cyclohexane-1-carboxylic acid]
IC50: 53 nM

CCCOc1ccnc(Nc2c(-c3ccc(O[C@H]4CCC[C@H](C(=O)O)C4)c(C)n3)nnn2C)n1 [Example 239, (1S,3S)-3-((2-methyl-6-(1-methyl-5-((4-propoxypyrimidin-2-yl)amino)-1H-1,2,3-triazol-4-yl)pyridin-3-yl)oxy) cyclohexane-1-carboxylic acid]
IC50: 50 nM

CCOc1cccc(Nc2c(-c3ccc(O[C@H]4CCC[C@H](C(=O)O)C4)c(C)n3)nnn2C)n1 [Example 240, (1S,3S)-3-((6-(5-((6-ethoxypyridin-2-yl)amino)-1-methyl-1H-1,2,3-triazol-4-yl)-2-methylpyridin-3-yl)oxy) cyclohexane-1-carboxylic acid]
IC50: 57 nM
